The values below come from paper PMC11750102, “Inhibition of the anti-apoptotic protein BCL2 in EML4-ALK cell models as a second proposed therapeutic target for non-small cell lung cancer” (PLOS ONE, 2025).

This test has as its target T1, Anaplastic lymphoma kinase (ALK) (Homo sapiens, UniProt Q9UM73).
T1 construct: purified recombinant GST-ALK
The test can be described thus: ELISA-based in vitro kinase assay with peptide substrate. It is filed as biochemical. For orientation: ELISA stands for enzyme-linked immunosorbent assay.

T1 sequence (Q9UM73 19-1620): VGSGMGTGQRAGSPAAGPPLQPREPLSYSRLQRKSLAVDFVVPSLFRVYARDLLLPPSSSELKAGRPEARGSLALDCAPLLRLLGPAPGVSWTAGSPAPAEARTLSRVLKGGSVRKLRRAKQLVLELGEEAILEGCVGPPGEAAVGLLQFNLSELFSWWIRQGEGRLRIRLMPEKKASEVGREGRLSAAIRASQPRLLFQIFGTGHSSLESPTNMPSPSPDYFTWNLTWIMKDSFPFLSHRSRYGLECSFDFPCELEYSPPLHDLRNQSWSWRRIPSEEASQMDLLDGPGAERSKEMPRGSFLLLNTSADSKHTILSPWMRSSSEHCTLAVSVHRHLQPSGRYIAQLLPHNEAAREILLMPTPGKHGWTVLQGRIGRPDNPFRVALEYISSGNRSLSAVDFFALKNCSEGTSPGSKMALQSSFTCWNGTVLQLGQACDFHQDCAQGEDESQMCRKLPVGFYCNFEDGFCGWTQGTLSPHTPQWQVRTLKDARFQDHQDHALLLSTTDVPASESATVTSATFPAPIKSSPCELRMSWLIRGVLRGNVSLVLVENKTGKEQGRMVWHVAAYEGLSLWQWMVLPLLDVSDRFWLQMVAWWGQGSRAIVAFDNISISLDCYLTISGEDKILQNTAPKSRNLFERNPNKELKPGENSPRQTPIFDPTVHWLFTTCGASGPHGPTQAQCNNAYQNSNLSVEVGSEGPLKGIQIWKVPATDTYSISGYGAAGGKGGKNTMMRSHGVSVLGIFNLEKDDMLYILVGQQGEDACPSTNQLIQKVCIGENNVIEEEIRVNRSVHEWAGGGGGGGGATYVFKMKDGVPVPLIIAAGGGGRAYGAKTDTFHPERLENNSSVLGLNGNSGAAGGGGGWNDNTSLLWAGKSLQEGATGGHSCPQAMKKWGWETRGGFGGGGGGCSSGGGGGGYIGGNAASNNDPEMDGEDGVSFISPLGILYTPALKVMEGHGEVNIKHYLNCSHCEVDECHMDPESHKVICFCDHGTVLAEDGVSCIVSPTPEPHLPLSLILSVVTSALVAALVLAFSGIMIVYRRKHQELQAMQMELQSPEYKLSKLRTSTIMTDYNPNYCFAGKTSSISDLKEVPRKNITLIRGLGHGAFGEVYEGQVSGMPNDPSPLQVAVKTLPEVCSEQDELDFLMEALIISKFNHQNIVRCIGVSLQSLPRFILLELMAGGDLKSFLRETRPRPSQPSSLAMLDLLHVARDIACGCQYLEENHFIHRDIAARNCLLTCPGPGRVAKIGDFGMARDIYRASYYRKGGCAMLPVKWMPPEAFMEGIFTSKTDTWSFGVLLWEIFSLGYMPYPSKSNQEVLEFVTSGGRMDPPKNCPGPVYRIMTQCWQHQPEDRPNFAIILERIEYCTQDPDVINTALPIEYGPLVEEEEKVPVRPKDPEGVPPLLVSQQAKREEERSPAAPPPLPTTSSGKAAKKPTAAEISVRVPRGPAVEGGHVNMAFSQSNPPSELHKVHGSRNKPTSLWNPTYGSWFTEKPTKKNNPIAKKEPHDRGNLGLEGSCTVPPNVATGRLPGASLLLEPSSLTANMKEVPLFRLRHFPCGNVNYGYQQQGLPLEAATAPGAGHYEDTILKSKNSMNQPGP

For orientation: IC50 means the midpoint of a concentration-inhibition curve. Low values mean inhibition by little substance, high ones a need for much substance. Molecule `CC1(C)CCC(CN2CCN(c3ccc(C(=O)NS(=O)(=O)c4ccc(NCC5CCOCC5)c([N+](=O)[O-])c4)c(Oc4cnc5[nH]ccc5c4)c3)CC2)=C(c2ccc(Cl)cc2)C1` [ABT-199] had a half-maximal inhibitory concentration (IC50) of 5.5 µM.
